Results published in the supplement of paper PMC10307832.

How the values were obtained:
Experiment in all cases: relative viability (nuclei count vs DMSO), 5 days (fraction); higher = more cells survive
[1] = compound: CCC1=CN=CN=C1N2CCN(CC2)CC3=NC4=C(N3)C=C(C=C4)C(F)(F)F + C[C@]1(O)C[C@@H](c2nc(-c3ccc4ccc(-c5ccccc5)nc4c3)c3c(N)nccn32)C1 [Linsitinib] (partner 1 µM)
Method in brief: (§1)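 Medians of duplicate plates are given as relative viability. That measure is the nuclei count in treated wells divided by the count in vehicle wells. Counts were taken on 4× images of lung cancer cell lines in 1536-well plates, 5 days after pin-tool dosing the day after seeding with one drug alone or a fixed anchor-drug dose plus five library-drug doses (not always all listed) in √10 steps.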

[2] = compound: CCn1c(-c2nonc2N)nc2cnc(Oc3cccc(NC(=O)c4ccc(OCCN5CCOCC5)cc4)c3)cc21 + CC1(C)CCC(c2ccc(Cl)cc2)=C(CN2CCN(c3ccc(C(=O)NS(=O)(=O)c4ccc(N[C@H](CCN5CCOCC5)CSc5ccccc5)c(S(=O)(=O)C(F)(F)F)c4)cc3)CC2)C1 [Navitoclax] (partner 0.5 µM)
Method in brief: as §1

Mirin + Foretinib = compound: N=C1NC(=O)/C(=C/c2ccc(O)cc2)S1 [Mirin] + COc1cc2c(Oc3ccc(NC(=O)C4(C(=O)Nc5ccc(F)cc5)CC4)cc3F)ccnc2cc1OCCCN1CCOCC1 [Foretinib] (partner 0.25 µM)
Method in brief: as §1

Mirin + Alpelisib = compound: N=C1NC(=O)/C(=C/c2ccc(O)cc2)S1 [Mirin] + Cc1nc(NC(=O)N2CCC[C@H]2C(N)=O)sc1-c1ccnc(C(C)(C)C(F)(F)F)c1 [Alpelisib] (partner 2 µM)
Method in brief: as §1

Cell Line | relative viability ([1]; first compound 0.04 µM) | relative viability ([1]; first compound 0.1265 µM) | relative viability ([1]; first compound 0.4 µM) | relative viability ([1]; first compound 1.265 µM) | relative viability ([1]; first compound 4 µM) | relative viability ([2]; first compound 0.04 µM) | relative viability ([2]; first compound 0.1265 µM) | relative viability ([2]; first compound 0.4 µM) | relative viability ([2]; first compound 4 µM) | relative viability (Mirin + Foretinib; first compound 0.25 µM) | relative viability (Mirin + Foretinib; first compound 0.7906 µM) | relative viability (Mirin + Foretinib; first compound 2.5 µM) | relative viability (Mirin + Foretinib; first compound 7.906 µM) | relative viability (Mirin + Foretinib; first compound 25 µM) | relative viability (Mirin + Alpelisib; first compound 0.25 µM) | relative viability (Mirin + Alpelisib; first compound 0.7906 µM) | relative viability (Mirin + Alpelisib; first compound 2.5 µM) | relative viability (Mirin + Alpelisib; first compound 25 µM) | relative viability ([2]; first compound 1.265 µM) | relative viability (Mirin + Alpelisib; first compound 7.906 µM)
HOP-62 | 1.27 | 1.02 | 0.983 | 0.87 | 0.77 | 1.26 | 1.07 | 1.05 | 1.06 | 1.17 | 1.24 | 1.11 | 1.1 | 1.21 | 0.969 | 1.02 | 1.13 | 0.939 | – | –
BEN | 0.868 | 0.82 | 0.802 | 0.531 | 0.477 | 0.0536 | 0.0704 | 0.0589 | 0.0489 | 0.567 | 0.654 | 0.68 | 0.552 | 0.386 | 1.03 | 1.08 | 1.09 | 0.467 | 0.0468 | 0.973
SK-MES-1 | 1.02 | 1.06 | 1.16 | 1.1 | 0.95 | 1.32 | 1.35 | 1.1 | 1.05 | 0.859 | 1.07 | 0.914 | 0.945 | 1.31 | 0.976 | 0.908 | 0.994 | 0.798 | – | 0.969
NCI-H1755 | 1.02 | 0.938 | 0.955 | 0.948 | 0.944 | 1.06 | 1.01 | 0.944 | 0.996 | 1 | 0.918 | 0.963 | 0.931 | 1.05 | 0.926 | 0.947 | 0.976 | 0.876 | 0.992 | 0.947
NCI-H2023 | 0.714 | 0.658 | 0.664 | 0.757 | 0.746 | 1.18 | 0.963 | 1.04 | 0.688 | 0.806 | 0.837 | 0.993 | 0.894 | 0.919 | 0.588 | 0.594 | 0.616 | 0.555 | 0.773 | 0.616
LC-2-ad | 0.818 | 0.87 | 0.765 | 0.813 | 0.788 | 0.522 | 0.439 | 0.508 | 0.167 | 0.97 | 1 | 0.988 | 0.907 | 0.759 | 0.865 | 0.926 | 0.98 | 0.726 | 0.214 | 0.821
NCI-H1666 | 0.726 | 0.832 | 0.845 | 0.913 | 0.821 | 1.09 | 1.28 | 1.07 | 0.495 | 0.963 | 1.03 | 1.04 | 0.941 | 0.836 | 0.869 | 1.01 | 0.884 | 0.528 | 0.648 | 0.826
EBC-1 | 0.996 | 0.811 | 0.782 | 0.759 | 0.897 | 0.519 | 0.341 | 0.429 | 0.261 | 0.103 | 0.116 | 0.102 | 0.102 | 0.0881 | 0.952 | 0.984 | 0.862 | 0.553 | 0.323 | 0.587
201T | 0.922 | 1.04 | 0.998 | 0.88 | 1.01 | 1.16 | 1.19 | 1.18 | 1.14 | 1.1 | 1.24 | 1.17 | 1.06 | 1.17 | 1.01 | 1 | 1.02 | 1.14 | 1.21 | 1.11
NCI-H2009 | 1.16 | 1.19 | 1.21 | 1.2 | 1.17 | 1.09 | 0.971 | 0.999 | 0.384 | 1.19 | 1.33 | 1.2 | 1.19 | 1.17 | 1.1 | 1.27 | 1.19 | 1.13 | 0.561 | 1.12
NCI-H1395 | 1.12 | 1.01 | 1.24 | 0.855 | 1.09 | 1.19 | 1.02 | 0.982 | 0.729 | 0.908 | 0.994 | 1.03 | 0.977 | 1.14 | 1.04 | – | 1.08 | 0.943 | 0.534 | 0.873
NCI-H23 | 0.681 | 0.689 | 0.59 | 0.623 | 0.638 | 1.18 | 0.956 | – | 0.651 | 0.8 | – | 1.13 | 0.891 | 0.773 | 0.655 | – | 0.723 | 0.442 | 0.806 | 0.642
LU99A | 0.514 | 0.563 | 0.581 | 0.525 | 0.562 | 0.98 | 0.82 | 0.841 | 0.741 | 0.71 | 0.631 | 0.795 | 0.71 | 0.566 | 0.541 | 0.518 | 0.498 | 0.352 | 0.849 | 0.376
NCI-H1437 | 1.03 | 0.967 | 0.896 | 0.836 | 0.634 | 1.1 | 1.09 | 1.02 | 0.607 | 1.31 | 1.31 | 1.22 | 1.2 | 1.19 | 0.979 | 0.884 | 0.832 | 0.474 | 0.747 | 0.705
EKVX | 1.01 | 0.897 | 0.954 | 0.769 | 0.905 | 1.13 | 1.01 | 0.861 | 0.831 | 0.757 | 0.73 | 0.848 | 0.735 | 0.932 | 0.909 | 0.817 | 0.992 | 0.788 | 0.895 | 0.773
IA-LM | 0.664 | 0.617 | 0.568 | 0.45 | 0.464 | 1.06 | 1.03 | 0.781 | 0.725 | 1.12 | 1.07 | 1.23 | 0.757 | 1.09 | 0.668 | 0.768 | 0.797 | 0.812 | 0.799 | 0.434
